These results are taken from ChEMBL document CHEMBL1629460, “Image-based high-throughput drug screening targeting the intracellular stage of Trypanosoma cruzi, the agent of Chagas' disease” (Antimicrob Agents Chemother, 2010).

Assay [1] can be described thus: Cytotoxicity against BESM cells after 88 hrs by HTS assay. The following applies: Bos taurus. Type of assay: ADME, cell-based.
The subject of assay [2] is Trypanosoma cruzi. The assay is described as follows: Antitrypanosomal activity against Trypanosoma cruzi amastigotes infected in BESM cells measured after 88 hrs postinfection by HTS assay. Type of assay: functional, organism-based.
Assay [3] is described as follows: Selectivity window, ratio of EC50 for BESM cells to EC50 for Trypanosoma cruzi amastigotes infected in BESM cells. On the set-up: reference not given here.

In the case of `C#C[C@]1(OC(C)=O)CC[C@H]2[C@@H]3CCC4=CC(=O)CC[C@@H]4[C@H]3CC[C@@]21C` [NORETHINDRONE ACETATE], the EC50 was determined as 28 µM in assay [1] and 17 µM in assay [2]. Also, in assay [3], the “Ratio EC50” value is 1.6.
On to `CC[C@H](C)[C@H]1O[C@]2(C=C[C@@H]1C)C[C@@H]1C[C@@H](C/C=C(\C)[C@@H](O[C@H]3C[C@H](OC)[C@@H](O[C@H]4C[C@H](OC)[C@@H](O)[C@H](C)O4)[C@H](C)O3)[C@@H](C)/C=C/C=C3\CO[C@@H]4[C@H](O)C(C)=C[C@@H](C(=O)O1)[C@]34O)O2.CO[C@H]1C[C@H](O[C@H]2[C@H](C)O[C@@H](O[C@@H]3/C(C)=C/C[C@@H]4C[C@@H](C[C@]5(C=C[C@H](C)[C@@H](C(C)C)O5)O4)OC(=O)[C@@H]4C=C(C)[C@@H](O)[C@H]5OC/C(=C\C=C\[C@@H]3C)[C@]54O)C[C@@H]2OC)O[C@@H](C)[C@@H]1O` [ABAMECTIN], for which the values for the EC50 in assay [1] and in assay [2] were 12 µM and 4 µM, respectively. Also, in assay [3], the “Ratio EC50” value was determined as 3.
Take `CCC(=O)O[C@]1(C(=O)CCl)[C@@H](C)C[C@H]2[C@@H]3CCC4=CC(=O)C=C[C@]4(C)[C@@]3(F)[C@@H](O)C[C@@]21C` [CLOBETASOL PROPIONATE]: the EC50 worked out at 41 µM in assay [1] and 25 µM in assay [2]. In addition, the “Ratio EC50” value in assay [3] is 1.6.
In the same order, the values of `c1ccc2c(c1)Nc1ccccc1S2` [PHENOTHIAZINE] are 26 µM, 6 µM and 4.3.
For `CN1C[C@H](CNC(=O)OCc2ccccc2)C[C@@H]2c3cccc4c3c(cn4C)C[C@H]21` [METERGOLINE], the figures for the EC50 in assay [1] and in assay [2] were 18 µM and 4 µM, respectively. Moreover, the “Ratio EC50” value in assay [3] is recorded as 4.5.
In the same order, the values of `C[C@@H]1C[C@@H]([C@H](O)CC2CC(=O)NC(=O)C2)C(=O)[C@@H](C)C1` [CYCLOHEXIMIDE] are greater than 50 µM, less than 0.4 µM and greater than 125.
As to `CN(C)CCCN1c2ccccc2Sc2ccccc21` [PROMAZINE], the EC50 in assay [1] was determined as 33 µM; in assay [2], 13 µM. Besides, in assay [3], the “Ratio EC50” value came out at 2.5.
For `CCCCOc1ccc(C(=O)CCN2CCCCC2)cc1.Cl` [DYCLONINE HYDROCHLORIDE] the same measures were 36 µM, 15 µM and 2.4.
In the same order, the values of `CCOC(=O)N1CCC(=C2c3ccc(Cl)cc3CCc3cccnc32)CC1` [LORATADINE] are 17 µM, 9 µM and 1.9.
On to `COc1cc2nc(N3CCN(C(=O)C4COc5ccccc5O4)CC3)nc(N)c2cc1OC` (stereo not given) [DOXAZOSIN], for which the EC50 in assay [1] is 27 µM; in assay [2], 12 µM. Besides, the “Ratio EC50” value in assay [3] worked out at 2.3.
As for `CC(C)CC(N(C)C)C1(c2ccc(Cl)cc2)CCC1` (stereo not given) [SIBUTRAMINE], the results for the EC50 in assay [1] and in assay [2] were 10 µM and 8 µM, respectively. Also, the “Ratio EC50” value in assay [3] is given as 1.3.
`CCCCCCCCCCCCC/C=C/[C@@H](O)[C@H](CO)NC(=O)CCCCCCC`: the EC50 in assay [1] was found to be 11 µM; in assay [2] it was 13 µM. In assay [3], the “Ratio EC50” value is on record as 0.8.
In the same order, the values of `OCCN1CCN(CCCN2c3ccccc3Sc3ccc(Cl)cc32)CC1` [PERPHENAZINE] are 13 µM, 5 µM and 2.6.
For `CCN(CC)CCOCCC1=CCC2CC1C2(C)C` (stereo not given) [MYRTECAINE] the same measures were 24 µM, 14 µM and 1.7.
On to `CC(C)N1CCN(c2ccc(OCC3COC(Cn4cncn4)(c4ccc(Cl)cc4Cl)O3)cc2)CC1` (stereo not given) [TERCONAZOLE], for which the EC50 in assay [1] is 24 µM; in assay [2], less than 0.4 µM. Moreover, in assay [3], the “Ratio EC50” value was greater than 60.
For the molecule `CC(C)[C@@]1(NC(=O)[C@@H]2C[C@@H]3c4cccc5[nH]cc(c45)C[C@H]3N(C)C2)O[C@@]2(O)[C@@H]3CCCN3C(=O)[C@H](Cc3ccccc3)N2C1=O.CS(=O)(=O)O` [DIHYDROERGOCRISTINE MESYLATE], the concentration giving a half-maximal response (EC50) stood at 47 µM in assay [1] and 5 µM in assay [2]. For the same molecule, the “Ratio EC50” value in assay [3] stood at 9.4.
For `Cc1c(C)c2c(c(C)c1O)CCC(C)(CN1CCN(c3cc(N4CCCC4)nc(N4CCCC4)n3)CC1)O2` (stereo not given), the values for the EC50 in assay [1] and in assay [2] were greater than 50 µM and 17 µM, respectively. Also, the “Ratio EC50” value in assay [3] was greater than 2.9.
Regarding `CN(C)CCC=C1c2ccccc2CCc2ccccc21` [AMITRIPTYLINE], the results for the EC50 in assay [1] and in assay [2] were 23 µM and 12 µM, respectively. Besides, the “Ratio EC50” value in assay [3] stood at 1.9.
In the same order, the values of `CCC1=C[C@@H]2CN(C1)Cc1c([nH]c3ccccc13)[C@@](C(=O)OC)(c1cc3c(cc1OC)N(C)[C@H]1[C@@](O)(C(=O)OC)[C@H](OC(C)=O)[C@]4(CC)C=CCN5CC[C@]31[C@@H]54)C2` [VINORELBINE] are greater than 50 µM, 10 µM and greater than 5.
In the same order, the values of `CC(=O)O[C@]1(C(C)=O)CC[C@H]2[C@@H]3C=C(Cl)C4=CC(=O)[C@@H]5C[C@@H]5[C@]4(C)[C@H]3CC[C@@]21C` [CYPROTERONE ACETATE] are greater than 50 µM, 32 µM and greater than 1.6.
On to `COc1ccccc1OCCNCC(O)COc1cccc2[nH]c3ccccc3c12` (stereo not given) [CARVEDILOL], for which the EC50 in assay [1] was determined as 31 µM; in assay [2], 8 µM. In assay [3], the “Ratio EC50” value came out at 3.9.
Consider `Cc1cc2c(OCC(CNC(C)(C)C)OC(=O)c3ccccc3)cccc2[nH]1` (stereo not given) [BOPINDOLOL], for which the EC50 in assay [1] is greater than 50 µM; in assay [2] it was 40 µM. The “Ratio EC50” value in assay [3] is listed as greater than 1.3.
In the same order, the values of `CN1CCCN(C(c2ccccc2)c2ccc(Cl)cc2)CC1` (stereo not given) [HOMOCHLORCYCLIZINE] are 13 µM, 12 µM and 1.1.
For `CC(C)[C@H]1C(=O)N2CCC[C@H]2[C@]2(O)O[C@](NC(=O)[C@@H]3C=C4c5cccc6[nH]cc(c56)C[C@H]4N(C)C3)(C(C)C)C(=O)N12` [ERGOCORNINE] the same measures were 43 µM, 18 µM and 2.4.
In the same order, the values of `C[C@@H]1C[C@H]2[C@@H]3CCC4=CC(=O)C=C[C@]4(C)C3=CC[C@]2(C)[C@H]1C(=O)CN1CCN(c2cc(N3CCCC3)nc(N3CCCC3)n2)CC1` [TIRILAZAD] are greater than 50 µM, 28 µM and greater than 1.8.
On to `CN(C)C(=O)C(CCN1CCC(O)(c2ccc(Cl)cc2)CC1)(c1ccccc1)c1ccccc1` [LOPERAMIDE], for which the figures for the EC50 in assay [1] and in assay [2] were 12 µM and 3 µM, respectively. Besides, the “Ratio EC50” value in assay [3] is 4.
In the case of `CN(C)CCCN1c2ccccc2CCc2ccc(Cl)cc21` [CLOMIPRAMINE], the figures for the EC50 in assay [1] and in assay [2] were greater than 50 µM and 8 µM, respectively. In addition, the “Ratio EC50” value in assay [3] is given as greater than 6.3.
With `O=C(N/N=C/c1ccc([N+](=O)[O-])o1)c1cc([N+](=O)[O-])cc([N+](=O)[O-])c1O` [NIFURSOL], the values for the EC50 in assay [1] and in assay [2] were greater than 50 µM and 15 µM, respectively. For the same molecule, the “Ratio EC50” value in assay [3] is on record as greater than 3.3.
For `CNCCC(Oc1ccc(C(F)(F)F)cc1)c1ccccc1` (stereo not given) [FLUOXETINE] the same measures were 16 µM, 7 µM and 2.3.
Take `O=C(c1ccc(OCCN2CCCCC2)cc1)c1c(-c2ccc(O)cc2)sc2cc(O)ccc12` [RALOXIFENE]: the results for the EC50 in assay [1] and in assay [2] were 22 µM and 10 µM, respectively. Further, the “Ratio EC50” value in assay [3] was 2.2.
In the same order, the values of `CN1CCCC(n2nc(Cc3ccc(Cl)cc3)c3ccccc3c2=O)CC1` (stereo not given) [AZELASTINE] are 49 µM, 1 µM and 49.
For `C=CCN1CC[C@]23c4c5ccc(O)c4O[C@H]2/C(=N/N=C2\CC[C@@]4(O)[C@H]6Cc7ccc(O)c8c7[C@@]4(CCN6CC=C)[C@H]2O8)CC[C@@]3(O)[C@H]1C5` [NALOXONAZINE] the same measures were 16 µM, 17 µM and 0.9.
For the molecule `C[C@H]([C@](O)(Cn1cncn1)c1ccc(F)cc1F)S(C)(=O)=O` [GENACONAZOLE], the values for the EC50 in assay [1] and in assay [2] were greater than 50 µM and 18 µM, respectively. For the same molecule, in assay [3], the “Ratio EC50” value was greater than 2.8.
With `COc1ccccc1N1CCN(CC(O)COc2cccc3ccccc23)CC1` (stereo not given) [NAFTOPIDIL], the EC50 in assay [1] is 18 µM; in assay [2] it was 11 µM. For the same molecule, the “Ratio EC50” value in assay [3] stood at 1.6.
Take `Cc1c(O)cccc1C(=O)N[C@@H](CSc1ccccc1)[C@H](O)CN1C[C@H]2CCCC[C@H]2C[C@H]1C(=O)NC(C)(C)C`: the EC50 in assay [1] came out at 32 µM; in assay [2], 12 µM. For the same molecule, the “Ratio EC50” value in assay [3] is on record as 2.7.
`CC(=O)O[C@@]12CO[C@@H]1C[C@H](O)[C@@]1(C)C(=O)[C@H](O)C3=C(C)[C@@H](OC(=O)[C@H](O)[C@@H](NC(=O)OC(C)(C)C)c4ccccc4)C[C@@](O)([C@@H](OC(=O)c4ccccc4)[C@H]21)C3(C)C.O.O.O` [DOCETAXEL]: the values for the EC50 in assay [1] and in assay [2] were 44 µM and less than 0.8 µM, respectively. In addition, the “Ratio EC50” value in assay [3] was greater than 56.
For `COc1c(C)c2c(c(O)c1C/C=C(\C)CCC(=O)OCCN1CCOCC1)C(=O)OC2` [MYCOPHENOLATE MOFETIL] the same measures were greater than 50 µM, 7 µM and greater than 7.1.
In the same order, the values of `O=C(Nc1ccc(Cl)c(Cl)c1)c1cc(Cl)cc(Cl)c1O` [3,3',4',5-TETRACHLOROSALICYLANILIDE] are 26 µM, 8 µM and 3.3.
In the same order, the values of `O=C1OCCN1/N=C/c1ccc([N+](=O)[O-])o1` [FURAZOLIDONE] are greater than 50 µM, less than 0.4 µM and greater than 125.
Consider `Cc1ccc(NC(=O)c2ccc(CN3CCN(C)CC3)cc2)cc1Nc1nccc(-c2cccnc2)n1` [IMATINIB], for which the EC50 stood at 32 µM in assay [1] and 9 µM in assay [2]. Further, in assay [3], the “Ratio EC50” value was 3.6.

As a reminder, the EC50 is the concentration at which the effect is half-maximal.
